Reference: ChEMBL document CHEMBL3885881, “DrugMatrix”

Organism: Rattus norvegicus
Test: DrugMatrix - Regimen: Daily Repeat
Type: toxicity, organism-based, Sprague-Dawley
Design: regimen Daily Repeat, gender Male, age 6-8 weeks
Details: in vivo, po, route oral GAVAGE, vehicle .5 % CMC; for ABSOLUTE BASOPHIL / ABSOLUTE EOSINOPHIL / ABSOLUTE LYMPHOCYTE / ABSOLUTE MONOCYTE / ABSOLUTE SEGMENTED NEUTROPHIL / BASOPHIL / EOSINOPHIL / ERYTHROCYTE COUNT / HEMATOCRIT / HEMOGLOBIN / LEUKOCYTE COUNT / LYMPHOCYTE / MEAN CORPUSCULAR HEMOGLOBIN / MEAN CORPUSCULAR HEMOGLOBIN CONCENTRATION / MEAN CORPUSCULAR VOLUME / MONOCYTE / NEUTROPHIL / NUCLEATED RED BLOOD CELLS / PLATELET COUNT: tissue Blood; for ALANINE AMINOTRANSFERASE / ALBUMIN / ALKALINE PHOSPHATASE / ASPARTATE AMINOTRANSFERASE / BLOOD UREA NITROGEN / CARBON DIOXIDE / CHLORIDE / CHOLESTEROL / CREATINE PHOSPHOKINASE / CREATININE / GLUCOSE / LACTATE DEHYDROGENASE / LIPASE / PHOSPHORUS / POTASSIUM / SODIUM / TOTAL BILIRUBIN / TOTAL PROTEIN / URIC ACID: tissue Plasma
[1] = 0 mg/kg, 72 h, dose level Control, time 3 day
[2] = 0 mg/kg, 120 h, dose level Control, time 5 day
[3] = 250 mg/kg, 72 h, dose level High, time 3 day

C#C[C@]1(O)CC[C@H]2[C@@H]3CCc4cc(OC)ccc4[C@H]3CC[C@@]21C [MESTRANOL]
ABSOLUTE BASOPHIL [1]: 0 CELLS/uL
ABSOLUTE EOSINOPHIL [1]: 0 CELLS/uL
ABSOLUTE LYMPHOCYTE [1]: 12269.67 CELLS/uL
ABSOLUTE MONOCYTE [1]: 160.33 CELLS/uL
ABSOLUTE SEGMENTED NEUTROPHIL [1]: 970 CELLS/uL
BASOPHIL [1]: 0%
EOSINOPHIL [1]: 0%
ERYTHROCYTE COUNT [1]: 5.76 x10E6/uL
HEMATOCRIT [1]: 36.57%
HEMOGLOBIN [1]: 14.22 G/DL
LEUKOCYTE COUNT [1]: 13.4 x10E3/uL
LYMPHOCYTE [1]: 91.67%
MEAN CORPUSCULAR HEMOGLOBIN [1]: 24.67 pg
MEAN CORPUSCULAR HEMOGLOBIN CONCENTRATION [1]: 38.85 G/DL
MEAN CORPUSCULAR VOLUME [1]: 63.52 fL
MONOCYTE [1]: 1.17%
NEUTROPHIL [1]: 7.17%
NUCLEATED RED BLOOD CELLS [1]: 0.33 /100WBC
PLATELET COUNT [1]: 1250.83 x10E3/uL
ALANINE AMINOTRANSFERASE [1]: 49.17 u/L
ALBUMIN [1]: 4.33 G/DL
ALKALINE PHOSPHATASE [1]: 378.5 u/L
ASPARTATE AMINOTRANSFERASE [1]: 82.17 u/L
BLOOD UREA NITROGEN [1]: 15 mg/dL
CARBON DIOXIDE [1]: 34.33 mmol/L
CHLORIDE [1]: 99.17 MEQ/L
CHOLESTEROL [1]: 71.17 mg/dL
CREATINE PHOSPHOKINASE [1]: 258.67 u/L
CREATININE [1]: 0.18 mg/dL
GLUCOSE [1]: 142.67 mg/dL
LACTATE DEHYDROGENASE [1]: 154.33 u/L
LIPASE [1]: 9 u/L
PHOSPHORUS [1]: 11.67 mg/dL
POTASSIUM [1]: 7.13 MEQ/L
SODIUM [1]: 142.22 MEQ/L
TOTAL BILIRUBIN [1]: 0.18 mg/dL
TOTAL PROTEIN [1]: 5.77 G/DL
URIC ACID [1]: 1.55 mg/dL
ABSOLUTE BASOPHIL [2]: 0 CELLS/uL
ABSOLUTE EOSINOPHIL [2]: 23.33 CELLS/uL
ABSOLUTE LYMPHOCYTE [2]: 14943.67 CELLS/uL
ABSOLUTE MONOCYTE [2]: 32 CELLS/uL
ABSOLUTE SEGMENTED NEUTROPHIL [2]: 1084.33 CELLS/uL
BASOPHIL [2]: 0%
EOSINOPHIL [2]: 0.17%
ERYTHROCYTE COUNT [2]: 5.71 x10E6/uL
HEMATOCRIT [2]: 35.28%
HEMOGLOBIN [2]: 14.27 G/DL
LEUKOCYTE COUNT [2]: 16.08 x10E3/uL
LYMPHOCYTE [2]: 93%
MEAN CORPUSCULAR HEMOGLOBIN [2]: 25.02 pg
MEAN CORPUSCULAR HEMOGLOBIN CONCENTRATION [2]: 40.43 G/DL
MEAN CORPUSCULAR VOLUME [2]: 61.82 fL
MONOCYTE [2]: 0.17%
NEUTROPHIL [2]: 6.67%
NUCLEATED RED BLOOD CELLS [2]: 0.33 /100WBC
PLATELET COUNT [2]: 1274 x10E3/uL
ALANINE AMINOTRANSFERASE [2]: 54.17 u/L
ALBUMIN [2]: 4.22 G/DL
ALKALINE PHOSPHATASE [2]: 373.17 u/L
ASPARTATE AMINOTRANSFERASE [2]: 81.83 u/L
BLOOD UREA NITROGEN [2]: 16.67 mg/dL
CARBON DIOXIDE [2]: 30.33 mmol/L
CHLORIDE [2]: 99 MEQ/L
CHOLESTEROL [2]: 71 mg/dL
CREATINE PHOSPHOKINASE [2]: 273.5 u/L
CREATININE [2]: 0.22 mg/dL
GLUCOSE [2]: 141.83 mg/dL
LACTATE DEHYDROGENASE [2]: 153.67 u/L
LIPASE [2]: 10.33 u/L
PHOSPHORUS [2]: 11.38 mg/dL
POTASSIUM [2]: 7.08 MEQ/L
SODIUM [2]: 142.75 MEQ/L
TOTAL BILIRUBIN [2]: 0.18 mg/dL
TOTAL PROTEIN [2]: 6.1 G/DL
URIC ACID [2]: 1.67 mg/dL
ABSOLUTE BASOPHIL [3]: 0 CELLS/uL
ABSOLUTE EOSINOPHIL [3]: 55.33 CELLS/uL
ABSOLUTE LYMPHOCYTE [3]: 13434.33 CELLS/uL
ABSOLUTE MONOCYTE [3]: 105 CELLS/uL
ABSOLUTE SEGMENTED NEUTROPHIL [3]: 1338.67 CELLS/uL
BASOPHIL [3]: 0%
EOSINOPHIL [3]: 0.33%
ERYTHROCYTE COUNT [3]: 5.62 x10E6/uL
HEMATOCRIT [3]: 34.97%
HEMOGLOBIN [3]: 13.77 G/DL
LEUKOCYTE COUNT [3]: 14.93 x10E3/uL
LYMPHOCYTE [3]: 89.67%
MEAN CORPUSCULAR HEMOGLOBIN [3]: 24.5 pg
MEAN CORPUSCULAR HEMOGLOBIN CONCENTRATION [3]: 39.37 G/DL
MEAN CORPUSCULAR VOLUME [3]: 62.23 fL
MONOCYTE [3]: 0.67%
NEUTROPHIL [3]: 9.33%
NUCLEATED RED BLOOD CELLS [3]: 0 /100WBC
PLATELET COUNT [3]: 1230 x10E3/uL
ALANINE AMINOTRANSFERASE [3]: 46.67 u/L
ALBUMIN [3]: 4.03 G/DL
ALKALINE PHOSPHATASE [3]: 693.33 u/L
ASPARTATE AMINOTRANSFERASE [3]: 67.67 u/L
BLOOD UREA NITROGEN [3]: 10.33 mg/dL
CARBON DIOXIDE [3]: 32 mmol/L
CHLORIDE [3]: 102.67 MEQ/L
CHOLESTEROL [3]: 11.33 mg/dL
CREATINE PHOSPHOKINASE [3]: 168.67 u/L
CREATININE [3]: 0.16 mg/dL
GLUCOSE [3]: 157 mg/dL
LACTATE DEHYDROGENASE [3]: 250.33 u/L
LIPASE [3]: 7.33 u/L
PHOSPHORUS [3]: 11.57 mg/dL
POTASSIUM [3]: 6.36 MEQ/L
SODIUM [3]: 145.73 MEQ/L
TOTAL BILIRUBIN [3]: 0.23 mg/dL
TOTAL PROTEIN [3]: 5.73 G/DL
